Assay results as given in ChEMBL document CHEMBL1201862, “PubChem BioAssay data set” (2004).
Activity calls are given as the source filed them. Rule as the data show it, for most assays here: actives have a measured IC50 and inactives only a lower limit.

Tests used:
[1] = target: T1, Tyrosine-protein phosphatase non-receptor type 22 (Homo sapiens, UniProt Q9Y2R2); test: SAR LYP1 Fluorescent Assay using OMFP substrate for In Vitro dose response studies - Set 3. [Related pubchem assays (depositor defined):AID1779, AID1784, AID2140, AID2686]; assay type: functional
T1 sequence (Q9Y2R2 whole entry): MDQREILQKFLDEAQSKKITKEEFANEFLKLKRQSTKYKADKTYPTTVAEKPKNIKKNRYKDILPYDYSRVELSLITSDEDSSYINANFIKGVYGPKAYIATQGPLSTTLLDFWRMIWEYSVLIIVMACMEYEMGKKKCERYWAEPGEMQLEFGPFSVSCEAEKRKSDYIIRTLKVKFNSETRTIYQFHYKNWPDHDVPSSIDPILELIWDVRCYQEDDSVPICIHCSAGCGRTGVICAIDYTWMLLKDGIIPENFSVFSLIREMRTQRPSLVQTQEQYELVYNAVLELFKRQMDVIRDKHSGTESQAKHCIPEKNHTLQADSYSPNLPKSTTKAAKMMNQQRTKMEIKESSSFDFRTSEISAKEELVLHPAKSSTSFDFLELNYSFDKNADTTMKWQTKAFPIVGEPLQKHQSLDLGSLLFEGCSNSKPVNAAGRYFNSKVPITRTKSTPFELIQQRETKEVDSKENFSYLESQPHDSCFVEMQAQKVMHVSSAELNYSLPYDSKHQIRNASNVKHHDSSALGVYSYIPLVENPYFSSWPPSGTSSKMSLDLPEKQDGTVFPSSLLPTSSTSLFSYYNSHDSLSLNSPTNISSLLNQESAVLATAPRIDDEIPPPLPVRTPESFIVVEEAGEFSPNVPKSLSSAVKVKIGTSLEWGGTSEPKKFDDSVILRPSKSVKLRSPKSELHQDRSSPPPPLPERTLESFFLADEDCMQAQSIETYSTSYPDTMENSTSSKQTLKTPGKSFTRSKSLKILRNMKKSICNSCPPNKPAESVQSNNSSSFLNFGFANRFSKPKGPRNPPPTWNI

[2] = target: T1, Tyrosine-protein phosphatase non-receptor type 22; test: PubChem AID 2135
[3] = target: T2, Tyrosine-protein phosphatase non-receptor type 7 (Homo sapiens, UniProt P35236); assay type: functional
T2 sequence (P35236 whole entry): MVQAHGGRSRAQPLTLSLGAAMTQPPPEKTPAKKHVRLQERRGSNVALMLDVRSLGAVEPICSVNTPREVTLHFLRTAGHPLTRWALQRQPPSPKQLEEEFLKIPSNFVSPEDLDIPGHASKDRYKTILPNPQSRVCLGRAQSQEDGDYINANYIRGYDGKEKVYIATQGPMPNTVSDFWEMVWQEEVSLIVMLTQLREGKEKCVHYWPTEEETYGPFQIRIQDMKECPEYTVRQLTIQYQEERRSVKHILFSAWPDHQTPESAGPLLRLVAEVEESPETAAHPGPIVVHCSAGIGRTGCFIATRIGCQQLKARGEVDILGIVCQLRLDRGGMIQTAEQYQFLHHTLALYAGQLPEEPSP

[4] = target: T3, Voltage-gated N-type calcium channel alpha-1B subunit/Amyloid beta A4 precursor protein-binding family A member 1 (Homo sapiens, UniProt Q00975+Q02410); assay type: protein assay
T3 sequence (Q00975 whole entry): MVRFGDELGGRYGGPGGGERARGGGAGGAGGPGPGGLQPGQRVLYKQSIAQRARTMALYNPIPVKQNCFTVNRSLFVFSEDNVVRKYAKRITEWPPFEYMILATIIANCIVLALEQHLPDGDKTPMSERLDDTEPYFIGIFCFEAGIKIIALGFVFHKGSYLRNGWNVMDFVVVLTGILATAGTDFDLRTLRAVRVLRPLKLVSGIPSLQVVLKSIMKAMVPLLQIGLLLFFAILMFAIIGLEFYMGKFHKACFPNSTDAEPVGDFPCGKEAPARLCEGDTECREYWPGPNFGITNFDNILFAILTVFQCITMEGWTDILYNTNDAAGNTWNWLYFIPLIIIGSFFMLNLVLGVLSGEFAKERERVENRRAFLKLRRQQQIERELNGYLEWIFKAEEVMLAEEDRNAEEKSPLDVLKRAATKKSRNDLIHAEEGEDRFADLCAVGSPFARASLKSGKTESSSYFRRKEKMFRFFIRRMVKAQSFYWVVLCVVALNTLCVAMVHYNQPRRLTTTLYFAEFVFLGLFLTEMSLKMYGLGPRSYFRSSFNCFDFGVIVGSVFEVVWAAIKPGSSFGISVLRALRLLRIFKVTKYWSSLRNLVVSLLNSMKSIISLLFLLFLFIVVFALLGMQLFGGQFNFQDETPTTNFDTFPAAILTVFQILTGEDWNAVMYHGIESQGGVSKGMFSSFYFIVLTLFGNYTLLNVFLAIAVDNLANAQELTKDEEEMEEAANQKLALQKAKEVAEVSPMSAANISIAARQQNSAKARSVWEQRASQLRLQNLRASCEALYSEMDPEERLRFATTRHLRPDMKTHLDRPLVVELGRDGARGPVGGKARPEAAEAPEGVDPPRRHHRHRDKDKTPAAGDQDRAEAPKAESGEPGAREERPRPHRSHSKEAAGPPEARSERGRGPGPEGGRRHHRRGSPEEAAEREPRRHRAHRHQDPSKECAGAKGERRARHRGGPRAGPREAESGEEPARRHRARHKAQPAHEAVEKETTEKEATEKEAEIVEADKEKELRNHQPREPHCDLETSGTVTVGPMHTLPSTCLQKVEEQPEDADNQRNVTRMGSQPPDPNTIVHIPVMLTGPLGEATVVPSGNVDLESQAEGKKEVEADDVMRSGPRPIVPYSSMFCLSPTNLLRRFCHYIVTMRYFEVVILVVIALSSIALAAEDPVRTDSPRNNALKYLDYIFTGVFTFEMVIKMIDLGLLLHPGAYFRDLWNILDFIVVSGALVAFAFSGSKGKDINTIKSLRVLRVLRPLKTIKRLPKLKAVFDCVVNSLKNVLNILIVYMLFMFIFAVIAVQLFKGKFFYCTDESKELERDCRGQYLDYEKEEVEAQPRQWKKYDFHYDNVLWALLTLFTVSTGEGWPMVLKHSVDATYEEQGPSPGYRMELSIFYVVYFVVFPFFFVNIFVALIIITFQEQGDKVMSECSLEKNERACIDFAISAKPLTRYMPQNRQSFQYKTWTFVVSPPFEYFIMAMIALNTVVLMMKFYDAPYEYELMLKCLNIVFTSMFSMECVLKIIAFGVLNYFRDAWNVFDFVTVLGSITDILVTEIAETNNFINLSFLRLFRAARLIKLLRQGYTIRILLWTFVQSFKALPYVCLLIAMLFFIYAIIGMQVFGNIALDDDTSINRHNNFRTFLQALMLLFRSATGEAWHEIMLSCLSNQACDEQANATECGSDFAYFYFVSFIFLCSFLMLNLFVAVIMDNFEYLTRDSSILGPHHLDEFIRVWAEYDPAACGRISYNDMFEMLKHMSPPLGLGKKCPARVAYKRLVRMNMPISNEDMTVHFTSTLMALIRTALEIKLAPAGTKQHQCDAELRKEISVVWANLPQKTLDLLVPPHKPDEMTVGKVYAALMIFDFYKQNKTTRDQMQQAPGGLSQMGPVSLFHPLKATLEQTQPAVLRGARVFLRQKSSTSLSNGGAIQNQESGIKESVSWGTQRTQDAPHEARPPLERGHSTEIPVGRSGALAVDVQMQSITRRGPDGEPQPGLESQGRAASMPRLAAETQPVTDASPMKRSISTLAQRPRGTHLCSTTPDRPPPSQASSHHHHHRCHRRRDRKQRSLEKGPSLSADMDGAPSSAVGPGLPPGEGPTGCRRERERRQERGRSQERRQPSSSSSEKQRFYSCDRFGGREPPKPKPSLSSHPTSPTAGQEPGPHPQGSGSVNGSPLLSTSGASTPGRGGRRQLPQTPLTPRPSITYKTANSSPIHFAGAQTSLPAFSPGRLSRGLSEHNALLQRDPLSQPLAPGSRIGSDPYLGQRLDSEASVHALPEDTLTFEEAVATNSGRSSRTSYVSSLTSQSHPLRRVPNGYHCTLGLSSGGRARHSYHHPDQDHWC
T3 sequence (Q02410 whole entry): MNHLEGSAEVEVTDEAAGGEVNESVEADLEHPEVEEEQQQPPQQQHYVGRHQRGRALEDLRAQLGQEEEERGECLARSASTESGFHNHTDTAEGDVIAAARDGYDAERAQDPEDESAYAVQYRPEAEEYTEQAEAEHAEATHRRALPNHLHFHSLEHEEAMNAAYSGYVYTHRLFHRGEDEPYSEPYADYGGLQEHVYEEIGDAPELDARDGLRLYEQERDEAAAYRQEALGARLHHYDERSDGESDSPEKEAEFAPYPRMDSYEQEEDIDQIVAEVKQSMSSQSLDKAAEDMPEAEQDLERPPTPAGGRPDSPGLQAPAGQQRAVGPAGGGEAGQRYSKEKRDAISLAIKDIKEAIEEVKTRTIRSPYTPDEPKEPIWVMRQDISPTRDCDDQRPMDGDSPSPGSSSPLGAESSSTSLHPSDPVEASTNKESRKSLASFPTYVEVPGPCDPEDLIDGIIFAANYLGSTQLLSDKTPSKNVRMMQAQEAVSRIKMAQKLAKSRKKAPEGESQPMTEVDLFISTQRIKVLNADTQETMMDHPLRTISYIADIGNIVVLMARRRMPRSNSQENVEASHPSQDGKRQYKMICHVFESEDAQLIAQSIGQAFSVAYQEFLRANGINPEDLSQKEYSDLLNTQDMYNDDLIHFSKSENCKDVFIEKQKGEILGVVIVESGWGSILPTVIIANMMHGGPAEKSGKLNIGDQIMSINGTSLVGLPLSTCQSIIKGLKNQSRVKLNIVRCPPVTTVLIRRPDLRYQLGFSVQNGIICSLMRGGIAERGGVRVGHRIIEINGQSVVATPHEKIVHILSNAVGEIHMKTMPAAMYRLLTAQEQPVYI

[5] = target: T3, Voltage-gated N-type calcium channel alpha-1B subunit/Amyloid beta A4 precursor protein-binding family A member 1; assay type: protein assay; remark: listed apart in the source
[6] = target: T1, Tyrosine-protein phosphatase non-receptor type 22; assay type: functional
[7] = target: T1, Tyrosine-protein phosphatase non-receptor type 22; test: SAR LYP1 Fluorescent Assay using pCAP substrate for In Vitro dose response studies - Set 2. [Related pubchem assays (depositor defined):AID1779, AID1784, AID2135, AID449727]; assay type: functional
[8] = target: T1, Tyrosine-protein phosphatase non-receptor type 22; test: SAR LYP1 Fluorescent Assay using OMFP substrate for In Vitro dose response studies - Set 2. [Related pubchem assays (depositor defined):AID1779, AID1784, AID2140, AID449726, AID488869]; assay type: functional
[9] = target: T2, Tyrosine-protein phosphatase non-receptor type 7; test: HTS HePTP Fluorescent Assay using OMFP substrate for In Vitro dose response studies. [Related pubchem assays (depositor defined):AID1059, AID1077, AID1784, AID2068, AID2085, AID435032, AID521]; assay type: functional
[10] = viability of uninfected HEp-2 cells – cell-based, HTS, cytotoxicity control for RSV inhibitor project, dose response (AID 2410); assay type: functional; conditions: human respiratory syncytial virus
[11] = target: T1, Tyrosine-protein phosphatase non-receptor type 22; test: PTPN22 lymphoid phosphatase activity blockers – biochemical, fluorescence intensity, uHTS (AID 1779)
[12] = target: T1, Tyrosine-protein phosphatase non-receptor type 22; test: PubChem AID 2140
[13] = target: T1, Tyrosine-protein phosphatase non-receptor type 22; test: LYP1 Fluorescent Assay using OMFP substrate for In Vitro dose response studies. [Related pubchem assays (depositor defined):AID1779, AID1784, AID435024]
[14] = target: Tyrosine-protein phosphatase non-receptor type 12 (Homo sapiens, UniProt Q05209); test: SAR Selectivity Analysis of small molecule inhibitors of PEST using pCAP in a fluorescence assay. [Related pubchem assays (depositor defined):AID1779, AID1784, AID2135]; assay type: functional
Tyrosine-protein phosphatase non-receptor type 12, sequence (Q05209 whole entry): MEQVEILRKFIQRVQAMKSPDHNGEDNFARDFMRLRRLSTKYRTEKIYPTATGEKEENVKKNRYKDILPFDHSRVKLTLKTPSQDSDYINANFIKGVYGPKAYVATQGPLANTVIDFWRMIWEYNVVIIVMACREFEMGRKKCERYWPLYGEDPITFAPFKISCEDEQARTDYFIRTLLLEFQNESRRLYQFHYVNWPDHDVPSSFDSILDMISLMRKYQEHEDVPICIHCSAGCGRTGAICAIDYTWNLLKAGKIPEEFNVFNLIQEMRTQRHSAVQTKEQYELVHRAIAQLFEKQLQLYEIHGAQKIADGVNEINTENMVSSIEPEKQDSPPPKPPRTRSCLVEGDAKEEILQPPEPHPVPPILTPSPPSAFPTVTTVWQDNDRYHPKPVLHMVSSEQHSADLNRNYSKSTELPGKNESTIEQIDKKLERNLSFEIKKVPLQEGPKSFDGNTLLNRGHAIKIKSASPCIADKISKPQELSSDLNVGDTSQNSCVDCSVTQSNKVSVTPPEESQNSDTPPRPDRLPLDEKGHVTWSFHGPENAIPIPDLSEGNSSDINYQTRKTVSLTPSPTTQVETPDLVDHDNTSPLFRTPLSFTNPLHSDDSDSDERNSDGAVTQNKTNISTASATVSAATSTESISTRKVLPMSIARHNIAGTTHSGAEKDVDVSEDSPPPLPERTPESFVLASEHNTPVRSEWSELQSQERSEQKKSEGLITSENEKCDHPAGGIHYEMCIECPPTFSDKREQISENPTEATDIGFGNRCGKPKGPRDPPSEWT

[15] = target: T2, Tyrosine-protein phosphatase non-receptor type 7; test: inhibition of hematopoietic tyrosine phosphatase HePTP – biochemical, set 2, SAR follow-up (AID 449736); assay type: functional
[16] = target: T1, Tyrosine-protein phosphatase non-receptor type 22; test: inhibition of lymphoid tyrosine phosphatase LYP – biochemical, pCAP fluorogenic substrate, fluorescence, set 3, SAR follow-up (AID 449727); assay type: functional
[17] = target: T1, Tyrosine-protein phosphatase non-receptor type 22; assay type: functional; remark: listed apart in the source
[18] = target: T4, Kappa-type opioid receptor (Homo sapiens, UniProt P41145); test: SAR analysis of small molecule antagonists of the kappa opioid receptor via a luminescent beta-arrestin assay - Set 5. [Related pubchem assays (depositor defined):AID1778, AID1785]; assay type: functional
T4 sequence (P41145 whole entry): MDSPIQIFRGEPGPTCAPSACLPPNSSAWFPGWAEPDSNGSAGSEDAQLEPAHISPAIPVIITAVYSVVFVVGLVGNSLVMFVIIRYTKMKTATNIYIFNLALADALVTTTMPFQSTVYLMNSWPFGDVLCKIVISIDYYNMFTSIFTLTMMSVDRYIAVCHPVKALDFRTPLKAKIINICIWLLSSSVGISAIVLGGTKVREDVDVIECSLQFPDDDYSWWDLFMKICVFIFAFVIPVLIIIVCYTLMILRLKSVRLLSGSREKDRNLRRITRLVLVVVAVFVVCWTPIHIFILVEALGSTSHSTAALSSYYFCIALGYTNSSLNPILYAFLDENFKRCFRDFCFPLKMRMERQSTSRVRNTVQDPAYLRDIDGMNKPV

[19] = target: T4, Kappa-type opioid receptor; test: SAR analysis of small molecule antagonists of the kappa opioid receptor via a luminescent beta-arrestin assay - Set 4. [Related pubchem assays (depositor defined):AID1777, AID1778, AID1785, AID1786, AID1966, AID2133, AID2136, AID2285]; assay type: functional

| IC50 [1] | IC50 [2] | IC50 [3] | IC50 [4] | IC50 [5] | IC50 [6] | IC50 [7] | IC50 [8] | IC50 [9] | IC50 [11] | IC50 [12] | IC50 [13] | IC50 [14] | IC50 [15] | IC50 [16] | IC50 [17] | IC50 [18] | IC50 [19] | SMILES | CC50 [10] |
| --- | --- | --- | --- | --- | --- | --- | --- | --- | --- | --- | --- | --- | --- | --- | --- | --- | --- | --- | --- |
| 20.5 µM (active) | 2.66 µM (active) | 14.6 µM (active) | 13.7 µM (active) | > 50 µM (inactive) | 2.61 µM (active) | 1.6 µM (active) | 3.15 µM (active) | 8.8 µM (active) | 12.6 µM (active) | 7.71 µM (active) | 18.8 µM (active) | 1.65 µM (active) | 481 nM (active) | 4.86 µM (active) | 15.7 µM (active) | – | – | N#C/C(=C/c1ccc(OCc2ccc(C(=O)O)cc2)c(Br)c1)c1cccc(F)c1 | > 50 µM (active) |
| – | – | – | – | – | – | – | – | – | – | – | – | – | – | – | – | 452 nM (active) | 1.66 µM (active) | COc1ccc(CN(CCNC(=O)c2ccc(CNS(=O)(=O)Cc3ccccc3)cc2)C(C)C)cc1 | – |
